Series [1] concerns TNF-α in human PBMC cells. Put plainly: In vitro TNF-α activity assay in human PBMC cell supernatant (LPS, ELISA). As to conditions: LPS 100 ng/mL, read-out: p38 MAPK/TNF-α IC50. In kind it is cell-based. As for the experimental part: The inhibitory effect of the compound on TNF-α in the supernatant of human PBMC cells was evaluated using an ELISA detection kit (Beyotime, PI518). The test compound was dissolved in DMSO to obtain a 10 mM stock solution and stored at −20° C. for future use. The initial concentration of the compound was […], followed by 5-fold serial dilution to obtain 6 concentrations. Cells were plated in duplicate, and ELISA was performed in single wells. The final concentration of DMSO was 0.4%. Alternatively, the initial concentration of the compound, dilution factor, number of concentration gradients, and replicates could be adjusted based on the specific screening conditions.
Fresh human peripheral blood mononuclear cells (PBMCs) (Sailybio) were seeded at a density of 2×10^5 cells per well in a 96-well plate (Corning, 3599), with each well containing 100 μL of RPMI-1640 (Gibco #A1049101)+10% FBS (Gibco, 10099141C), and incubated overnight at 37° C. under 5% CO2. Test compounds were added to the 96-well culture plate at a volume of 25 μL per well. After 1 hour, 5 μL of LPS was added to achieve a final concentration of 100 ng/mL. No LPS and compound were added to the negative control wells, and no compound was added to the positive control wells. The mixture was further incubated for 24 hours at 37° C. under 5% CO2. Subsequently, the cell culture supernatant was collected by centrifugation at 500 rcf for 8 minutes. The concentration of TNF-α was measured according to the operation manual of the ELISA kit. The concentration-effect curve was fitted using GraphPad Prism 8 software, and the compound concentration resulting in 50% inhibition, IC50, was calculated.

For series [2], the target named is T1, p38 MAPK/MK2 (Homo sapiens, UniProt Q16539).
T1 construct: purchased Carna (p38α); Abcam (MK2) 04-152; 79910
T1 sequence (Q16539 whole entry): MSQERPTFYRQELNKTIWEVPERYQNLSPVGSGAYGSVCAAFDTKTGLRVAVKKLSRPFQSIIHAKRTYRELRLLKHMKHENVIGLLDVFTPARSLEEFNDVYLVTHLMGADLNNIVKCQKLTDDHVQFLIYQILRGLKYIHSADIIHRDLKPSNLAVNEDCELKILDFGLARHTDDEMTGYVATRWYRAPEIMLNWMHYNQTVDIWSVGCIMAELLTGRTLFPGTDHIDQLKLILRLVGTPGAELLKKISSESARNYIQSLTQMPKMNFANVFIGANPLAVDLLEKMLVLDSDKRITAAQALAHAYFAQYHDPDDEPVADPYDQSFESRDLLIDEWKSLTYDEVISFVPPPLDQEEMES
T1 sequence (P49137 whole entry partner): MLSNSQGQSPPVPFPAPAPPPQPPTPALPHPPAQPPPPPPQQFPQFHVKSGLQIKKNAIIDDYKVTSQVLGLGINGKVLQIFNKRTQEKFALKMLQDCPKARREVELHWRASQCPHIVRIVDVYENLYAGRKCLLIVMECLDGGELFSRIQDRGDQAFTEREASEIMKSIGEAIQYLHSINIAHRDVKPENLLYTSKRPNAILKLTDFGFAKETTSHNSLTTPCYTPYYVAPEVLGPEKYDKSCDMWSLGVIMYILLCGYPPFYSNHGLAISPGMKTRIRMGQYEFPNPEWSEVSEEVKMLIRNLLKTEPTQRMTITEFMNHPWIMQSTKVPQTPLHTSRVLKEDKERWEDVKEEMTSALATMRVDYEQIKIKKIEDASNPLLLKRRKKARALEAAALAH
Briefly: In vitro activity assay of p38 MAPK/MK2 (Z-LYTE kinase assay kit). The series is classed as biochemical. The note with it: active p38α, inactive MK2, Ser/Thr 4; 1-hour reaction at 20° C. As for the experimental part: (§1) The inhibitory effect of the compound on p38 MAPK/MK2 was evaluated using the Z-LYTE kinase assay kit (Thermo, PV3177). The test compound was dissolved in DMSO to obtain a 10 mM stock solution and stored at −20° C. for future use. The initial concentration of the compound was […], with 1% DMSO, 5-fold serial dilution, 8 concentrations, and duplicate wells. […] After a 1-hour reaction at 20° C., Development Reagent A diluted 2048-fold was added to each well, followed by incubation at room temperature for 1 hour. The reaction was terminated by adding 5 μL of stop buffer, and the plate was read using a microplate reader (Ex. 400 nm, Em. 445 nm; Ex. 400 nm, Em. 520 nm). The concentration-effect curve was fitted using GraphPad Prism 8 software, and the compound concentration resulting in 50% inhibition, IC50, was calculated.

Series [3] in a line: In vitro liver microsome stability, mouse. In kind it is in vitro ADME. The note with it: liver microsomes, 0.5 mg/mL microsomes, 1 μM compound, NADPH, 37° C., read-out: Mouse liver microsomes Half-life T1/2. The method, then: (§2) The reference compound used in this experiment was Ketanserin, and the final concentration of microsomes in the experimental system was 0.5 mg/mL. The PBS buffer was a 50 mM K2HPO4 buffer. The concentration of the test compound was 1 μM. The microsomes were added to PBS, and the control/test compounds were respectively added to the corresponding reaction systems, mixed thoroughly, and pre-incubated in a 37° C. water bath for 5 minutes. The reaction was initiated by adding 20 mM NADPH solution under 37° C. water bath conditions (for the No NADPH samples, an equal volume of PBS solution was used as a substitute for the 20 mM NADPH solution). At the reaction time points of 0 min, 10 min, 30 mun, 60 min, and 90 min, 30 μL of reaction samples were taken from each reaction system (for the No NADPH samples, sampling was performed at 0 min and 90 min), and the reaction was immediately terminated by adding 300 μL of the internal standard acetonitrile solution. After centrifugation at 4000 rpm, the supernatant was taken and mixed thoroughly with an equal volume of pure water. The samples at each time point were analyzed by LC-MS/MS (AB Triple Quard 5500) to determine the compound content, and the T1/2 was calculated.

The nature of series [4]: In vitro liver microsome stability, human. The note with it: liver microsomes, 0.5 mg/mL microsomes, 1 μM compound, NADPH, 37° C., read-out: Human liver microsomes Half-life T1/2. The series is classed as in vitro ADME. The method, then:
as §2
(Microsomes from liver hold many membrane-bound enzymes, among them those of drug oxidation.)

Series [5] can be described thus: In vitro liver microsome stability, rat. The note with it: liver microsomes, 0.5 mg/mL microsomes, 1 μM compound, NADPH, 37° C., read-out: Rat liver microsomes Half-life T1/2. The series is classed as in vitro ADME. As for the experimental part: as §2
Series [6] deals with T2, p38 MAPK/MK5 (Homo sapiens, UniProt Q16539).
T2 construct: purchased Carna (p38α); Abcam (MK5) 04-152; 217826
T2 sequence (Q16539 whole entry): as the sequence (Q16539 whole entry) above
Briefly: In vitro activity assay of p38 MAPK/MK5 (Z-LYTE kinase assay kit). In kind it is biochemical. As to conditions: active p38α, inactive MK5, Ser/Thr 4; 4-hour reaction at 20° C. As for the experimental part: as §1, with “MAPK/MK5” for “MAPK/MK2”, “4-hour” for “1-hour”, “µL” for “μL”

Series [7] in a line: Pharmacokinetic evaluation in mice. The series is classed as in vivo. As to conditions: mouse, plasma; for AUC(0-t): read-out: Area under curve AUC0-24 h; for half-life: read-out: Half-life T1/2 (converted). As for the experimental part: The compound was weighed and dissolved in a mixed solvent of DMAC: Solutol: PBS (1:1:8. After intravenous/gastric administration to mice, whole blood ([…]) was collected at 0.083, 0.25, 0.5, 1, 2, 4, 7, and 24 hours. The samples were anticoagulated with EDTA-K2, immediately centrifuged at 4000 rpm for 5 minutes at 4° C., and the supernatant was frozen in a −80° C. refrigerator. Plasma sample processing: The samples were precipitated with an internal standard-containing CH3CN precipitant, followed by centrifugation at 12700 rpm for 10 min. The supernatant was collected and analyzed by LC-MS/MS (AB Triple Quard 5500) to obtain the plasma drug concentration. The parameters were calculated using a non-compartmental model in Winnolin version 8.1.

The mark [8] stands for this setting: intravenous injection group 1 mg/kg.
Setting [9] is: po, intragastric administration group 5 mg/kg.

Like-named read-outs stand apart in the source and are kept apart here.

`Cc1cnc(-c2cccc(C(C)(C)CO)c2F)cc1-n1c(C)cc(OCc2ncc(F)cc2F)c(Cl)c1=O` [Compound 137]: the IC50 in series [1] (Homo sapiens, PBMC, 24 h) stood at 0.84 nM; in series [2], 11.7 nM.

With `Cc1cnc(-c2ccc(F)c(C(C)(C)O)c2F)cc1-n1c(C)cc(OCc2ncc(F)cc2F)c(Cl)c1=O` [Compound 111-P2], the half-life at 1 μM in series [3], in series [4] and in series [5] was > 4.66 h each time. Moreover, the IC50 in series [1] (Homo sapiens, PBMC, 24 h) turned out to be 1.43 nM; in series [2], 0.22 nM.

On to `CNC(=O)c1cccc(-c2cc(-n3c(C)cc(OCc4ncc(F)cc4F)c(Cl)c3=O)c(C)cn2)c1F` [Compound 20], for which the IC50 in series [1] (24 hours) came out at 8.68 nM; in series [2], 1.03 nM.

On to `Cc1cnc(-c2ccc(F)c([C@](C)(O)CO)c2)c(F)c1-n1c(C)cc(OCc2ncc(F)cc2F)c(Cl)c1=O` [Compound 51-P2], for which the IC50 was found to be 4490 nM in series [6] and 0.71 nM in series [2].

In the case of `Cc1cnc(-c2ccnc(C(C)(C)O)n2)cc1-n1c(C)cc(OCc2ncc(F)cc2F)c(Cl)c1=O` [Compound C, reference compound], the IC50 in series [1] (Homo sapiens, PBMC, 24 h) came to 26.4 nM.

Turning to `CNC(=O)c1cccc(-c2cc(-n3c(C)cc(OCc4ncc(F)cc4F)c(Cl)c3=O)c(C)cn2)c1F` (single isomer, unassigned) [Compound 20-P2], the half-life at 1 μM in series [3], in series [4] and in series [5] was > 4.66 h each time. In addition, the IC50 in series [1] (24 hours) turned out to be 4.2 nM; in series [2], 0.27 nM.

For the compound `Cc1cnc(-c2ccc(F)c(C(C)(C)O)c2)cc1-n1c(C)cc(OCc2ncc(F)cc2F)c(Cl)c1=O` [Compound 88-P2], in series [4], the half-life at 1 μM is > 4.66 h. This compound also gave an IC50 in series [2] of 2.11 nM.

For `Cc1cnc(-c2ccc(F)c([C@@](C)(O)CO)c2F)c(F)c1-n1c(C)cc(OCc2ncc(F)cc2F)c(Cl)c1=O` [Compound 113-P1], the IC50 stood at 1.7 nM in series [1] (Homo sapiens, PBMC, 24 h) and 0.09 nM in series [2]. Besides, in series [4], the half-life at 1 μM was > 4.66 h.

Consider `CNC(=O)C(C)(O)c1cc(-c2ncc(C)c(-n3c(C)cc(OCc4ncc(F)cc4F)c(Cl)c3=O)c2F)ccc1F` (stereo not shown) [Compound 124-P2], for which the half-life at 1 μM in series [4] was > 4.66 h. In series [2], this compound came in with an IC50 of 0.1 nM.

`[2H]C([2H])(Oc1cc(C)n(-c2cc(-c3ccc(F)c([C@@](C)(O)CO)c3F)ncc2C)c(=O)c1Cl)c1ncc(F)cc1F` [Compound 145-P1]: the half-life at 1 μM in series [3], in series [4] and in series [5] was > 4.66 h throughout. Moreover, the IC50 is 8.51 nM in series [1] (Homo sapiens, PBMC, 24 h) and 1.19 nM in series [2].

In the case of `Cc1cnc(-c2cccc([C@@H](O)CO)c2F)cc1-n1c(C)cc(OCc2ncc(F)cc2F)c(Cl)c1=O` [Compound 151-P1], the IC50 was 12.9 nM in series [1] (Homo sapiens, PBMC, 24 h) and 1.56 nM in series [2].

Take `Cc1cnc(-c2ccc(F)c(C(C)(O)C(N)=O)c2)c(F)c1-n1c(C)cc(OCc2ncc(F)cc2F)c(Cl)c1=O` (stereo not shown) [Compound 128-P1]: the half-life at 1 μM in series [4] was > 4.66 h. In addition, the IC50 in series [2] amounted to 0.15 nM.

With `[2H]C([2H])(Oc1cc(C)n(-c2cc(-c3cccc([C@@](C)(O)CO)c3F)ncc2C)c(=O)c1Cl)c1ncc(F)cc1F` [Compound 146-P1], the figures for the half-life at 1 μM in series [3], in series [4] and in series [5] were 2.29 h, > 4.66 h and > 4.66 h, respectively. The IC50 stood at 3.38 nM in series [1] (Homo sapiens, PBMC, 24 h) and 1.43 nM in series [2].

As to `Cc1cnc(-c2ccc(F)c(C(C)(C)O)c2)c(F)c1-n1c(C)cc(OCc2ncc(F)cc2F)c(Cl)c1=O` [Compound 70-P1], the IC50 in series [1] (Homo sapiens, PBMC, 24 h) was 11.2 nM; in series [2], 0.38 nM. For the same compound, the half-life at 1 μM in series [4] is > 4.66 h.

One may read the clearance as a measure of how efficiently the substance is removed, as volume per time. As usually defined, the Vd is a proportionality between amount in the body and measured concentration, not a real space. A word on the bioavailability: it is the share of a dose that reaches the circulation, judged against a reference dose that is usually intravenous. As to `Cc1cnc(-c2cccc(S(C)(=O)=O)c2)c(F)c1-n1c(C)cc(OCc2ncc(F)cc2F)c(Cl)c1=O` [Compound 33-P1], the AUC(0-t) in series [7] (setting [8]) is 1580 ng·h/mL; in series [7] (setting [9]) it was 2800 ng·h/mL. Also, the clearance in series [7] (intravenous injection group 1 mg/kg, read-out: Clearance CL (converted)) is 10.8 mL/min/kg. For the same compound, the half-life in series [7] (setting [8]) was 0.98 h; in series [7] (setting [9]), 1.99 h. In series [7] (intravenous injection group 1 mg/kg, read-out: Initial concentration C0), the C0 amounted to 3200 ng/mL. In series [7] (intravenous injection group 1 mg/kg, read-out: Volume of distribution Vd), the Vd turned out to be 0.32 L/kg. Further, the bioavailability in series [7] (po, intragastric administration group 5 mg/kg, read-out: Bioavailability F %) turned out to be 36.9%. Besides, the Cmax in series [7] (po, intragastric administration group 5 mg/kg, read-out: Maximum concentration Cmax) is 3670 ng/mL. In addition, the IC50 in series [1] (Homo sapiens, PBMC, 24 h) worked out at 2.93 nM; in series [2] it was 0.056 nM.

For `Cc1cnc(-c2cccc(S(C)(=O)=O)c2)cc1-n1c(C)cc(OCc2ncc(F)cc2F)c(Cl)c1=O` [Compound 11], the half-life at 1 μM in series [3] was 4.22 h; in series [4], > 4.66 h; in series [5], 3.79 h. For the same compound, the IC50 in series [1] (Homo sapiens, PBMC, 24 h) was determined as 18.4 nM; in series [2], 14.6 nM.

For the compound `Cc1cnc(-c2cccc([C@@](C)(O)CO)c2F)c(F)c1-n1c(C)cc(OCc2ncc(F)cc2F)c(Cl)c1=O` [Compound 112-P1], the IC50 was found to be 0.44 nM in series [1] (Homo sapiens, PBMC, 24 h) and 0.13 nM in series [2]. Besides, the half-life at 1 μM in series [4] was > 4.66 h.

Take `Cc1cc(OCc2ncc(F)cc2F)c(Cl)c(=O)n1-c1ccnc(-c2cccc(C(C)(C)O)c2F)c1` [Compound 141]: the half-life at 1 μM in series [3] was > 4.66 h; in series [5], 2.51 h. The IC50 in series [1] (Homo sapiens, PBMC, 24 h) is 14.1 nM; in series [2], 0.794 nM.

(Values after US20260217652A1, “PHENYL-SUBSTITUTED HETEROARYL COMPOUND AND PHARMACEUTICAL COMPOSITION COMPRISING SAME, PREPARATION METHOD THEREFOR AND USE THEREOF” (SHANGHAI MEIYUE BIOTECH DEVELOPMENT CO., LTD., priority 2023, published 2026).)
